pIC50: −log10 of the molar value.
Tests used:
human OTR = target: T1, human OTR (Homo sapiens, UniProt P30559); assay: Inhibition activity on human OTR (Fluo-4 calcium assay, HEK293/human OTR stably transfected cells, oxytocin 3 nM); format: cell-based; details: calcium signal
T1 construct: expressed in transfected cells
T1 sequence (P30559 1-389): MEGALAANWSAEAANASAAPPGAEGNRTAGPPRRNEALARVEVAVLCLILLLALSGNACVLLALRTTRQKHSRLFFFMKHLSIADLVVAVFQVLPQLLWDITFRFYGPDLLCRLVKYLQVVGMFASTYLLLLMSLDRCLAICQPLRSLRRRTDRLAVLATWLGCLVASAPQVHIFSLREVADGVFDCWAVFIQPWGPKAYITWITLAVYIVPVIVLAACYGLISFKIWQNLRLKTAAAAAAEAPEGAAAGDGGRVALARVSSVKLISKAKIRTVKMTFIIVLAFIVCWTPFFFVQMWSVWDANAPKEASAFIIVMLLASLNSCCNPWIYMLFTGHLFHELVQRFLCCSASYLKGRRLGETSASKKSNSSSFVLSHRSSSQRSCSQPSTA
Description: The inhibition effect of the compounds of the present invention on the activity of human OTR protein expressed in HEK293/human OTR stably transfected cells was determined by the following experimental method:
The pcDNA3.1-hOTR plasmid was transferred into HEK293 cells with the Lipofectamine® 3000 transfection reagent; G418 was added on the next day to screen, and monoclonal cell lines were selected.
HEK293/human OTR stably transfected cells were inoculated in a 96-well plate with an inoculation density of 25,000 cells/well one day in advance. On the next day, a loading buffer containing Fluo-4 dye was formulated using the reagents in the Fluo-4 NW calcium assay kit, and the culture medium was then removed; 100 μl of the loading buffer containing Fluo-4 dye were added to each well, and the plate was incubated at 37° C. for 30 minutes. After that, the plate was moved to room temperature and equilibrated for 10 minutes. The compounds were formulated into concentration gradients of 10^6, 10^5, 10^4, 10^3, 10^2 and 10^1 nM. 1 μl of the compounds in each concentration was added to each well, and the plate was incubated at room temperature for 10 minutes. 50 μl of oxytocin polypeptide (3 nM) were automatically added by the machine, and the values were immediately detected at 494/516 nM by the flexstation 3 microplate reader. IC50 values of the compounds were calculated by Graphpad prism software using fluorescence signals corresponding to different concentrations.
The inhibition activity of the compounds of the present invention on human OTR was determined by the above test, and the obtained IC50 values are shown in Table 1.

human V2R = target: T2, human V2R (Homo sapiens, UniProt P30518); assay: Inhibition activity on human V2R (cAMP HTRF assay, HEK293/human V2R pool cells, vasopressin); format: cell-based
T2 construct: expressed in transfected cells; host or cells: HEK293 (G418-selected pool)
T2 sequence (P30518 whole entry): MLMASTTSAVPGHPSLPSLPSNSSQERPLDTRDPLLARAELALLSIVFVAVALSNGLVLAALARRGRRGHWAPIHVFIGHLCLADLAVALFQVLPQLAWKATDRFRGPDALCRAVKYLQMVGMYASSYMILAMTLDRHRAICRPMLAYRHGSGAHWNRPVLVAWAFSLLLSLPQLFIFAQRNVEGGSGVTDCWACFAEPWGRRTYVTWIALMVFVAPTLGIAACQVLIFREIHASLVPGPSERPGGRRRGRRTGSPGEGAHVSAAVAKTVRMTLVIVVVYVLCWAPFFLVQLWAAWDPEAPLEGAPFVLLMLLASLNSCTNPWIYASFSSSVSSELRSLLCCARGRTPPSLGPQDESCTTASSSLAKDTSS
Description: The inhibition effect of the compounds of the present invention on the activity of human V2R protein expressed in HEK293/human V2R cells was determined by the following experimental method:
The pcDNA3.1-V2R plasmid was transferred into HEK293 cells with the Lipofectamine® 3000 transfection reagent; G418 was added on the next day, and the HEK293/human V2R pool cell lines were obtained.
HEK293/human V2R pool cells were digested with the cell dissociation solution (enzyme-free), thereby dissociating the cells from the cell culture dish into individual cells. After completion, the cell solution was blown well, and centrifuged to remove the supernatant. The cells were re-suspended in the test buffer 1 (1×HBSS+20 mM HEPES+0.1% BSA) and counted. The cell density was adjusted to 1250 cells/5 μl, i.e., 2.5*10^5/ml.
The compounds were formulated into a series of concentrations of 20 mM, 6.67 mM, 2.22 mM, 0.74 mM, 0.25 mM, 0.08 mM, 27.4 μM, 9.14 μM, 3.05 μM, 1.02 μM, 0.34 μM and 0 μM (DMSO) with pure DMSO. The compounds were then formulated into a 4-fold use concentration with the test buffer 2 (test buffer 1+1 mM IBMX).
Agonist: 460 μM vasopressin was used as the mother liquor, formulated as a 2 μM solution with DMSO, which was then diluted to a 0.5 nM solution with the test buffer 2.
Standard: The first point was 20 μl of a stock solution (2848 nM), which was diluted successively to a total of eleven concentrations in a 4-fold concentration gradient with the test buffer 1 from the second point.
1. The well-mixed cells were added to a 384-well plate (5 μl/well) without changing the tip.
2. The test compounds and positive compound formulated were added (2.5 μl/well), and the tips were changed.
3. The plate was centrifuged at 1000 rpm for 1 min, shaken for 30 sec to mix well, and incubated at room temperature for 30 min.
4. The standard curve wells were added with the test buffer 2 (5 μl/well).
5. The agonist formulated was added (2.5 μl/well), and the tips were changed; the plate was centrifuged at 1000 rpm for 1 min, shaken for 30 sec to mix well, and incubated at room temperature for 30 min.
6. cAMP-d2 (a component in the cAMP dynamic 2 kit) and Anti-cAMP-Eu-Cryptate (a component in the cAMP dynamic 2 kit) were formulated in the dark, which were then mixed well with cAMP lysate (a component in the cAMP dynamic 2 kit) in a ratio of 1:4. Each well was added with the formulated cAMP-d2 solution (5 μl/well), followed by addition of Anti-cAMP-Eu-Cryptate (5 μl/well). The plate was shaken for 30 sec to mix well, and incubated in the dark at room temperature for 1 h.
4) Plate reading: The HTRF signals were read by the PheraStar multi-function microplate reader.
The data in this test was processed using the data processing software Graphpad Prism.
The inhibition activity of the compounds of the present invention on human V2R was determined by the above test, and the obtained IC50 values are shown in Table 4.

Compound	pIC50 (human OTR)	pIC50 (human V2R)
CCOCc1nnc(N2C[C@@H]3C[C@]3(c3ccc(F)cc3Cl)C2)n1-c1ccc(OC)nc1 [Example 6, (1S,5R)-1-(2-Chloro-4-fluorophenyl)-3-(5-(ethoxymethyl)-4-(6-methoxypyridin-3-yl)-4H-1,2,4-triazol-3-yl)-3-azabicyclo[3.1.0]hexane]	8.37	5.14
COCc1nnc(N2C[C@@H]3C[C@]3(c3ccc(F)cc3Cl)C2)n1-c1ccc(OC)nc1 [Example 9, (1S,5R)-1-(2-Chloro-4-fluorophenyl)-3-(5-(methoxymethyl)-4-(6-methoxypyridin-3-yl)-4H-1,2,4-triazol-3-yl)-3-azabicyclo[3.1.0]hexane]	7.85	4.49

Further lines, results first:

pIC50 (human OTR)	pIC50 (human V2R)	Compound
7.54	4.59	COCc1nnc(N2C[C@@H]3C[C@]3(c3cccc(F)c3Cl)C2)n1-c1ccc(OC)nc1 [Example 4, (1S,5R)-1-(2-Chloro-3-fluorophenyl)-3-(5-(methoxymethyl)-4-(6-methoxypyridin-3-yl)-4H-1,2,4-triazol-3-yl)-3-azabicyclo[3.1.0]hexane]
7.52	4.53	COc1ccc(-n2c(N3C[C@@H]4C[C@]4(c4ccc(F)cc4Cl)C3)nnc2C(F)(F)F)cn1 [Example 12, (1S,5R)-1-(2-Chloro-4-fluorophenyl)-3-(4-(6-methoxypyridin-3-yl)-5-(trifluoromethyl)-4H-1,2,4-triazol-3-yl)-3-azabicyclo[3.1.0]hexane]
7.36	4.67	COc1ccc(-n2c(COCCF)nnc2N2C[C@@H]3C[C@]3(c3ccc(F)cc3Cl)C2)cn1 [Example 1, (1S,5R)-1-(2-Chloro-4-fluorophenyl)-3-(5-((2-fluoroethoxy)methyl)-4-(6-methoxypyridin-3-yl)-4H-1,2,4-triazol-3-yl)-3-azabicyclo[3.1.0]hexane]

— patent publication US20210040073A1, “AZABICYCLO-SUBSTITUTED TRIAZOLE DERIVATIVE, PREPARATION METHOD THEREOF, AND APPLICATION OF SAME IN MEDICINE” (Jiangsu Hengrui Medicine Co., Ltd., priority 2016, published 2021)
